Test results reported in patent publication US20250340944A1, “METHOD TO ASSIST IN SCREENING FOR LATE RECURRENCE OF ER+ BREAST CANCER, AND METHOD FOR SCREENING THERAPEUTIC DRUGS” (JAPANESE FOUNDATION FOR CANCER RESEARCH, priority 2022, published 2025).

Experiments:
Assay type in all cases: cell-based
HCC1428-LTED cells [1] = assay: FACS analysis of CD44 expression on the cell surface after ELEANOR knock-down
Procedure: The maximum value in the analysis is defined as 100.
Whether the CD44 expression is changed also at the protein level was investigated. Comparative analysis of CD44 expression between HCC1428 and HCC1428-LTED cells was performed. The LNA of SEQ ID NO: 1 that suppresses ELEANOR expression and siRNA (Thermo Fisher Scientific) that suppresses CD44 expression were introduced into HCC1428-LTED cells, and the CD44 expression was analyzed by Western blotting (FIG. 5E). […] Furthermore, an ELEANOR was knocked down by introducing the LNA of SEQ ID NO: 1 into HCC1428-LTED cells, and whether the CD44 expression on the cell surface is also changed or not was analyzed by FACS.

CD44 mRNA = assay: RT-qPCR of CD44 mRNA after suppression of ELEANOR expression by LNAs; conditions: HCC1428-LTED cells, ELEANOR knock-down by LNA
Procedure: FIG. 5D is a graph showing the results of RT-qPCR analysis of expressions of ESR1 and CD44 when ELEANORS are knocked down by ELEANOR2 LNA and pa-ELEANOR LNA.
Expressions of ESR1, ELEANORS, and CD44 in the HC1428 and HC1428-LTED cells were analyzed by RT-qPCR using the primers below. In the RT-qPCR, total RNA was purified from cultured cells using NucleoSpin RNA/protein kit (MACHEREY-NAGEL) and was reverse-transcribed by ReverTra Ace qPCR RT Master Mix (TOYOBO Co., Ltd.). The RT-qPCR was performed by ABI Prism 7500 (ABI inc.) using SYBR Green.
Subsequently, the ELEANOR expression was suppressed by LNAs of SEQ ID NO: 1 and SEQ ID NO: 41 specific to ELEANORS, and whether the CD44 expression is changed or not was investigated. The expression of CD44 mRNA was decreased by knock-down of these ELEANORS (FIG. 5D).

HCC1428-LTED cells [2] = assay: FACS analysis of CD44/CD24 expression (breast cancer stem cells) after LNA knock-down of ELEANOR2; conditions: LNA transfected with RNAiMAX, analysis after 48 hours
Procedure: ELEANOR2 RNA which is most abundant in ELEANORS was knocked down by LNA, and CD44/CD24 expression was analyzed by FACS (FIG. 5B). The LNA below was transfected using RNAiMAX (Invitrogen), and analysis was performed after 48 hours.

Substance	number of CD44+ cells (HCC1428-LTED cells [1])	expression of CD44 mRNA (CD44 mRNA)	number of breast cancer stem cells (CD44+/CD24-/low) (HCC1428-LTED cells [2])
ELEANOR2-LNA: LNA that knocks down ELEANOR2 RNA, sequence TTTGGCCACATTGGAA (SEQ ID NO: 1) (LNA-modified antisense, pattern not given here)	decreased	decreased	significantly decreased
pa-ELEANOR-LNA: LNA specific to pa-ELEANOR, sequence GTGCCAGACTCCGATA (SEQ ID NO: 41) (LNA-modified antisense, pattern not given here)	–	decreased	–
